Experimental data from patent US4157396A, “Hydroxamic acid derivatives and medicaments for treatment of urolithiasis and pyelonephrosis comprising such derivatives” (Eisai Co., Ltd., priority 1976, dated 1979).
Like-named read-outs stand apart in the source and are kept apart here.

Key:
[1] = target: T1, Urease collected and purified from sword beans (Canavalia gladiata) (Canavalia gladiata, UniProt A0AAN9R4W0); assay: Determination of the urease inhibitory action; assay type: biochemical; settings: read-out: 50% inhibitory concentration (M) of urease <I50>
T1 construct: single-chain plant urease, homohexamer by analogy with jack bean urease
Description: (i) Determination of the urease inhibitory action
Urease was collected and purified from sword beans (Canavalia gladiata) and mol concentrations of the examination compounds for inhibiting 50% of the activity of the urease were measured by the method of Kobashi et al [Refer to Biochim. Biophys. acta 227, 429-441 (1971)].

Proteus mirabilis OM-1 [2] = assay: Arrestment action to the calculus formation in the urine; assay type: cell-based; settings: OM1, human urine with Proteus mirabilis OM-1, 8 hours, read-out: Arrest ratio to calculus formation (%), 8 hours; for inhibition at 200 µM: 2×10^-4 M; for inhibition at 1000 µM: 10^-3 M
[3] = Acute toxicity: remarks on the dissection; assay type: in vivo, rats of SD strain; settings: for Remarks on the dissection, death examples: macroscopic observation at the time of death; for Remarks on the dissection, survivor example: rat, in vivo
Description: (§1) Eight week-old rats of SD strain (body weight: about 230 g for male and about 160 g for female) were used as the subject animals. The examination compounds were forcedly and orally administered in the following dosages, wherein 14 rats (7 male rats and 7 female rats, respectively) were used.
The dissection was performed, for the death examples, at the time of death and, for the survivor example, after killing by discharging the blood when the observation of the general conditions was finished. The organs in the thoracic cavity and the abdominal cavity were closely observed with a macroscopic manner.

Proteus mirabilis OM-1 [4] = assay: Arrestment action to the calculus formation in the urine; assay type: cell-based; settings: OM1, human urine with Proteus mirabilis OM-1, 24 hours, read-out: Arrest ratio to calculus formation (%), 24 hours; for inhibition at 200 µM: 2×10^-4 M; for inhibition at 1000 µM: 10^-3 M
Description: (§2) Solutions to be examined were prepared by collecting each 18 ml of fresh urine from a normal human, and adding the respective examination compounds to each of the urine to make their concentration of 10^-3 M in one group, and of 2×10^-4 in the other group. On the other hand, same solutions containing no examination compounds were prepared as blanks.
Proteus mirabilis OM-1, a urease-producing bacterium, was inoculated in said solutions, so that the number of the bacteria may amount to 10^6 cell/ml, and cultured at 37° C. After […] and 24 hours of the culture time, pH values of the solutions and amounts by weight of the formed and deposited calculus were measured. The arrestment ratio of calculus formation was calculated from said values.

[5] = Acute toxicity (LD50), oral; settings: rat, in vivo, po
Source text: The examination was achieved by orally administering the examination compounds into male rats of SD strain weighing about 230 g, respectively.

[6] = Acute toxicity: observation of the general conditions; assay type: in vivo; settings: for Number of death examples, Female / Number of death examples, Male: rat, in vivo; for Symptom: 7 male and 7 female per dose
Source text: as §1

[7] = Examination of urine (Labstix test paper, amount, pH); assay type: in vivo, male SD strain rats; design: key to Protein in urine, hours 0-6 / Protein in urine, hours 6-24 / Glucose in urine, hours 0-6 / Glucose in urine, hours 6-24 / Ketone substances in urine, hours 0-6 / Ketone substances in urine, hours 6-24 / Occult blood in urine, hours 0-6 / Occult blood in urine, hours 6-24: (-); (±); (+); (++); (+++); settings: 100 mg/Kg oral, male SD rats; for Ketone substances in urine, hours 0-6 / Occult blood in urine, hours 0-6 / Protein in urine, hours 0-6 / Glucose in urine, hours 6-24 / Ketone substances in urine, hours 6-24 / Occult blood in urine, hours 6-24 / Protein in urine, hours 6-24 / Glucose in urine, hours 0-6: Labstix; for Ketone substances in urine, hours 0-6 / Occult blood in urine, hours 0-6 / Protein in urine, hours 0-6: 0-6 hours; for Glucose in urine, hours 6-24 / Ketone substances in urine, hours 6-24 / Occult blood in urine, hours 6-24 / Protein in urine, hours 6-24: 6-24 hours; for Glucose in urine, hours 0-6: first collection period; for Amount and pH value of the urine: compared with the group given no examination compound
Description: To 5 male SD strain rats having the body weight of about 280 g in the respective groups, the examination compounds were forcedly and orally administered in a ratio of 100 mg/Kg in each time.
Natural urinations were respectively recovered 6 hours and 6-24 hours from the administration. As for control group wherein no examination compound is administered, natural urination was similarly recovered. Amount and pH value of the recovered urine were measured. Further, qualitative reaction concerning the respective items of protein, glucose, ketone substances, and occult blood in the urine was carried out by using Labstix text paper (manufactured and sold by Ames Company). Judgement was ranked as five levels, that is, (-), (±), (+), (++) and (+++).

[8] = Determination of the transfer rate into the urine and calculation of the index; assay type: in vivo, male rats of SD strain; settings: rat, male SD rats, 100 mg/Kg oral, measured as urease inhibitory action in excreted urine; for dose excreted at 6 h: 0-6 hours; for dose excreted at 24 h: 6-24 hours
Description: (ii) Determination of the transfer rate into the urine
Transfer rates into the urine of the examination compounds were determined according to the method of Kobashi et al [Refer to Biochemistry (Japan) vol. 44, No. 5, pp. 187-204 (1972) and Yakugaku Zasshi vol. 12, pp. 1564-1572 (1973)] by using the male rats of SD strain having the body weight of about 280 g, administering orally each 100 mg/Kg of the compounds, and measuring the urease inhibitory action in the excreted urine within a specified period of time.
(iii) Calculation of the index
The index was calculated from the resulting values of the above examinations (i) and (ii) according to the following equation: [formula] wherein n is chosen appropriately depending on the value of I50.
The value of the index is referred to as a standard of the urease inhibitory power of the administered examination compound in the urine.
It is seen that the larger the value of the index is, the more effectively the examination compounds transfer into the urine with a form having the urease inhibitory action. Results of the determination

Proteus mirabilis OM-1 [9] = assay: Arrestment action to alkalization of the urine; assay type: cell-based; settings: normal human urine inoculated with Proteus mirabilis OM-1, 37° C.
Description: as §2
Proteus mirabilis OM-1, a urease-producing bacterium, was inoculated in said solutions, so that the number of the bacteria may amount to 10^6 cell/ml, and cultured at 37° C. […] The arrestment ratio of calculus formation was calculated from said values.

[10] = single forced oral dose, SD rats
[11] = single forced oral dose, SD rats, all administration groups

T1 sequence (A0AAN9R4W0 entry or part of it): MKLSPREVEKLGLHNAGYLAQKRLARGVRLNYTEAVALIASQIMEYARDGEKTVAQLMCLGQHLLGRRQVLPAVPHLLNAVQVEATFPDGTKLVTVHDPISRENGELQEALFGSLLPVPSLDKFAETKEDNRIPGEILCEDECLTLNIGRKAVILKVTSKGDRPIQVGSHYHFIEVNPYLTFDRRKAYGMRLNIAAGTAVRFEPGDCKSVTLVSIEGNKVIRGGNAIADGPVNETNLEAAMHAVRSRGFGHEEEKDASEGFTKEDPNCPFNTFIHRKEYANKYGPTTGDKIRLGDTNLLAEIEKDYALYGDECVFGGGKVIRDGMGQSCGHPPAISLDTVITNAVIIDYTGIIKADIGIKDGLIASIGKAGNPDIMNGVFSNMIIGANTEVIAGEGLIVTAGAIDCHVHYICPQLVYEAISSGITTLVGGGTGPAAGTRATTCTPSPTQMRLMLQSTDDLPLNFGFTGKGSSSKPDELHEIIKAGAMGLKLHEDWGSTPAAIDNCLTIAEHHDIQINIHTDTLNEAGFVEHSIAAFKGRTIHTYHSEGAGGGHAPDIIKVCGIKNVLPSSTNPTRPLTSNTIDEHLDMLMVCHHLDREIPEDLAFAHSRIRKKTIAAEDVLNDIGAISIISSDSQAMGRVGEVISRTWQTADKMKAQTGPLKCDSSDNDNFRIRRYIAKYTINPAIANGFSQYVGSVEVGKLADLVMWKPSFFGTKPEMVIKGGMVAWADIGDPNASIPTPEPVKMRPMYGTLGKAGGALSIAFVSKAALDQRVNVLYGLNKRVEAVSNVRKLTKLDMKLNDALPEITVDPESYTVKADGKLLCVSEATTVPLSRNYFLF

Compound | IC50 [1] [M] | inhibition at 200 µM (Proteus mirabilis OM-1 [2]) [%] | inhibition at 1000 µM (Proteus mirabilis OM-1 [2]) [%] | Remarks on the dissection, death examples [3] | Remarks on the dissection, survivor example [3] | inhibition at 200 µM (Proteus mirabilis OM-1 [4]) [%] | inhibition at 1000 µM (Proteus mirabilis OM-1 [4]) [%] | LD50 [5] [mg/kg] | Number of death examples, Female [6] | Number of death examples, Male [6] | Symptom [6, 10] | Baited amount [6, 11] | Ketone substances in urine, hours 0-6 [7] | Occult blood in urine, hours 0-6 [7] | Protein in urine, hours 0-6 [7] | Glucose in urine, hours 6-24 [7] | Ketone substances in urine, hours 6-24 [7] | Occult blood in urine, hours 6-24 [7] | Protein in urine, hours 6-24 [7] | Glucose in urine, hours 0-6 [7] | also measured
O=C(CNC(=O)c1ccc(Cl)cc1)NO [Control compound I, 2-(para-chloro-benzamide)-acetohydroxamic acid, reference compound] | 1e-06 | 77.2 ± 9.1 | 69.7 ± 9 | Petechiae and ulcer | Blacking change and hypertrophy of spleen | 30.6 ± 13.9 | 82.5 ± 8.5 | > 5000 | 0/7 | 3/7 | arantic change | Decrease | ++ | - | ++ | +++ | +++ | - | +++ | +++ | Body Weight decrease on average [6, 11]: 10%; Amount and pH value of the urine [7]: there was not found the difference; dose excreted at 6 h [8]: 1%; dose excreted at 24 h [8]: 0.5%; pH value, time 0 hour (Proteus mirabilis OM-1 [9]; 2×10^-4 M): 6.79±0.01; pH value, time 8 hours (Proteus mirabilis OM-1 [9]; 2×10^-4 M): 7.30±0.00; pH value, time 24 hours (Proteus mirabilis OM-1 [9]; 2×10^-4 M): 8.51±0.01; pH value, time 0 hour (Proteus mirabilis OM-1 [9]; 10^-3 M): 6.75±0.003; pH value, time 8 hours (Proteus mirabilis OM-1 [9]; 10^-3 M): 6.64±0.02; pH value, time 24 hours (Proteus mirabilis OM-1 [9]; 10^-3 M): 7.03±0.01
COc1cccc(C(=O)NCC(=O)NO)c1 [Compound B, 2-(meta-methoxy-benzamide)-acetohydroxamic acid] | 1.2e-06 | 87.5 ± 1.6 | 82 ± 9.2 | Erosion was observed | No abnormality | 26.2 ± 5.7 | 79.1 ± 8.2 | > 5000 | 3/7 | 2/7 | Hair raising | No change | - | - | + | - | - | - | ± | - | Amount and pH value of the urine [7]: there was not found the difference; dose excreted at 6 h [8]: 12.3%; dose excreted at 24 h [8]: 1.5%; pH value, time 0 hour (Proteus mirabilis OM-1 [9]; 2×10^-4 M): 6.45±0.01; pH value, time 8 hours (Proteus mirabilis OM-1 [9]; 2×10^-4 M): 6.84±0.02; pH value, time 24 hours (Proteus mirabilis OM-1 [9]; 2×10^-4 M): 8.71±0.01; pH value, time 0 hour (Proteus mirabilis OM-1 [9]; 10^-3 M): 6.47±0.01; pH value, time 8 hours (Proteus mirabilis OM-1 [9]; 10^-3 M): 5.41±0.01; pH value, time 24 hours (Proteus mirabilis OM-1 [9]; 10^-3 M): 6.52±0.003
